# According to US12114655B2, “Agricultural compositions and methods of use thereof” (Valent U.S.A. LLC, priority 2019, dated 2024):
# Test system: corn
# Assay: Spray chamber treatment of corn plots grown to 12 inches: efficacy of clethodim with or without mannitol or sorbitol
# Assay type: in vivo
# Settings: 14 days after treatment; clethodim 55.4 g/HA, mannitol or sorbitol 6800 g/HA where present; all compositions with 1% v/v Agridex and 0.25% v/v Induce; corn 12 inches in height
# Experimental: 4 trials were conducted on the efficacy of clethodim with or without mannitol or sorbitol. Specifically, 4 plots of corn were grown to 12 inches in height. These plots were placed in a spray chamber for treatment. All compositions contained 1% v/v of Agridex® and 0.25% v/v of Induce®. Treatments and results can be found in Table 1, below.
compound,measurement,value
"CCSC(C)CC1CC(=O)C(/C(CC)=N/OC/C=C/Cl)=C(O)C1 (stereo not shown) [Clethodim, clethodim]",Days After Treatment (% control) 14,20.8 % control
